Experimental data as given in the supplement of paper PMC13380429.
± gives the standard deviation of the averaged measurements.

How the values were obtained:
Details in all cases: 72 h
Caco-2 [1] = assay: cell viability relative to DMSO; higher = less toxic
Calu-3 [2] = assay: as above
HepG2 [3] = assay: as above
U2OS [4] = assay: as above
Vero E6 [5] = assay: as above
Caco-2 [6] = assay: relative viability EC50 (midpoint between 100% and the lowest measured viability); higher = less toxic
Calu-3 [7] = assay: as above
HepG2 [8] = assay: as above
U2OS [9] = assay: as above
Vero E6 [10] = assay: as above
Caco-2 [11] = assay: drug sensitivity score (DSS) for viability; higher = more toxic; extreme values may be limits of the assay
Calu-3 [12] = assay: as above
HepG2 [13] = assay: as above
U2OS [14] = assay: as above
Vero E6 [15] = assay: as above

Row | SMILES | cell viability (Caco-2 [1]; 1 nM) [%] | cell viability (Caco-2 [1]; 10 nM) [%] | cell viability (Caco-2 [1]; 100 nM) [%] | cell viability (Caco-2 [1]; 1000 nM) [%] | cell viability (Caco-2 [1]; 10000 nM) [%] | cell viability (Calu-3 [2]; 1 nM) [%] | cell viability (Calu-3 [2]; 10 nM) [%] | cell viability (Calu-3 [2]; 100 nM) [%] | cell viability (Calu-3 [2]; 1000 nM) [%] | cell viability (Calu-3 [2]; 10000 nM) [%] | cell viability (HepG2 [3]; 1 nM) [%] | cell viability (HepG2 [3]; 10 nM) [%] | cell viability (HepG2 [3]; 100 nM) [%] | cell viability (HepG2 [3]; 1000 nM) [%] | cell viability (HepG2 [3]; 10000 nM) [%] | cell viability (U2OS [4]; 1 nM) [%] | cell viability (U2OS [4]; 10 nM) [%] | cell viability (U2OS [4]; 100 nM) [%] | cell viability (U2OS [4]; 1000 nM) [%] | cell viability (U2OS [4]; 10000 nM) [%] | cell viability (Vero E6 [5]; 1 nM) [%] | cell viability (Vero E6 [5]; 10 nM) [%] | cell viability (Vero E6 [5]; 100 nM) [%] | cell viability (Vero E6 [5]; 1000 nM) [%] | cell viability (Vero E6 [5]; 10000 nM) [%] | relative viability EC50 (Caco-2 [6]) [µM] | relative viability EC50 (Calu-3 [7]) [µM] | relative viability EC50 (HepG2 [8]) [µM] | relative viability EC50 (U2OS [9]) [µM] | relative viability EC50 (Vero E6 [10]) [µM] | drug sensitivity score (Caco-2 [11]) | drug sensitivity score (Calu-3 [12]) | drug sensitivity score (HepG2 [13]) | drug sensitivity score (U2OS [14]) | drug sensitivity score (Vero E6 [15])
1 | CC1OC2(CS1)CN1CCC2CC1 (stereo not given) [cevimeline] | 98.3 | 88.1 | 91.3 | 91 | 96.3 | 106 | 92.9 | 102 | 97.1 | 103 | 107 | 97 | 94.9 | 89.2 | 111 | 99.1 | 98.9 | 99.7 | 106 | 106 | 96.7 | 91.5 | 92.7 | 89.7 | 102 | > 10 | > 10 | > 10 | > 10 | > 10 | 0 | 0 | 0 | 0 | 0
2 | CS(=O)(=O)c1ccc(Cn2c3c(c4cc(F)cc(F)c42)CCCC3CC(=O)O)cc1 (stereo not given) | 97.6 | 96.4 | 96.5 | 96 | 97.7 | 99.7 | 98.4 | 95.3 | 103 | 100 | 108 | 91 | 97.3 | 95.6 | 94 | 93.1 | 97.2 | 93.5 | 97.1 | 97.6 | 98 | 101 | 100 | 99.1 | 95.4 | > 10 | > 10 | > 10 | > 10 | > 10 | 0 | 0 | 0 | 0 | 0
3 | C[C@@H]1CC(=O)c2c(ccc3c2C(=O)c2cccc(O)c2C3=O)C1 [ochromycinone] | 107 | 96.1 | 99.6 | 110 | 112 | 100 | 104 | 103 | 104 | 92.8 | 87.4 | 91 | 96.6 | 96.5 | 76 | 101 | 100 | 93.9 | 99.7 | 99.9 | 100 | 100 | 104 | 93.3 | 85.8 | > 10 | > 10 | > 10 | > 10 | > 10 | 0 | 0 | 1.4 | 0 | 0.6
4 | COc1ccccc1N1CCN(CCCCN2C(=O)c3ccccc3C2=O)CC1 [NAN-190] | 99.7 | 85.8 | 99.2 | 86.6 | 94.8 | 95.5 | 94.3 | 107 | 101 | 102 | 91.6 | 108 | 94 | 109 | 103 | 103 | 100 | 101 | 94.7 | 101 | 99.4 | 94.5 | 91.5 | 94.3 | 103 | > 10 | > 10 | > 10 | > 10 | > 10 | 0 | 0 | 0 | 0 | 0
5 | CC1(C)[C@H]2CC[C@]1(C)[C@@H](O)[C@H]2O [cis-exo-camphanediol-2,3] | 99.8 ± 5.1 | 104 ± 12 | 100 ± 9.5 | 102 ± 15 | 95.5 ± 5.4 | 104 ± 7.5 | 100 ± 1.9 | 106.2 ± 0.64 | 102 ± 5.9 | 97.85 ± 0.21 | 92 | 88.7 | 98.7 | 98.1 | 102 | 99.55 ± 0.071 | 106 ± 1.4 | 99 ± 1.6 | 99.5 ± 3.2 | 99 ± 5.7 | 97.8 ± 2.5 | 96.5 ± 10 | 96.8 ± 1.5 | 94.8 ± 6.7 | 95.6 ± 3.2 | > 10 | > 10 | > 10 | > 10 | > 10 | 0 | 0 | 0 | 0 | 0
6 | COc1ccc(-c2coc3cc(O)ccc3c2=O)cc1 [formononetin] | 101 | 101 | 100 | 95.6 | 94.2 | 103 | 94.5 | 102 | 89.8 | 93.7 | 102 | 106 | 97.8 | 104 | 96.7 | 102 | 98 | 99.9 | 102 | 103 | 102 | 101 | 99.9 | 105 | 102 | > 10 | > 10 | > 10 | > 10 | > 10 | 0 | 0 | 0 | 0 | 0
7 | CC(C)[C@@H]1CC[C@@H](C)C[C@H]1O [levomenthol] | 93.3 | 84.4 | 84.7 | 94.4 | 104 | 98 | 92.9 | 88.9 | 96.8 | 90.5 | 102 | 92.8 | 101 | 104 | 103 | 105 | 101 | 101 | 101 | 95.5 | 95.3 | 108 | 101 | 91.2 | 94.9 | > 10 | > 10 | > 10 | > 10 | > 10 | 0 | 0 | 0 | 0 | 0
